# Test results: paper PMC7424068, “Design, Synthesis, and Biological Evaluation of Novel Thiazolidinone-Containing Quinoxaline-1,4-di-N-oxides as Antimycobacterial and Antifungal Agents” (Frontiers in Chemistry, 2020)
# Where two headings read alike, the source gives them in different places.
# What was measured:
# [1] = tested on: Mtb H37Rv (ATCC27294); assay: Antimycobacterial activity, microplate Alamar blue assay (MABA); assay type: cell-based, Mycobacterium tuberculosis; conditions: for antimycobacterial activity (in words): Mtb strain H37Rv; for MIC: Mycobacterium tuberculosis, Mtb H37Rv
# [2] = tested on: TB-infected macrophage model; assay: Macrophage assay (TB-infected macrophage model); assay type: cell-based, Mycobacterium tuberculosis; conditions: for EC90: Mycobacterium tuberculosis, Macrophage, 168 h, concentration causing 90% reduction in residual mycobacterial growth after 7 days; for EC99: concentration causing 99% reduction in residual mycobacterial growth after 7 days
# [3] = tested on: Candida albicans, Candida tropicalis, Aspergillus fumigatus, and Cryptococcus neoformans; assay: Antifungal activity, broth microdilution, stated for the four fungi together; assay type: cell-based; conditions: read-out: MIC (antifungal, over the four fungi)
# Description: (§1) All synthesized compounds and the positive control drugs amphotericin B and ketoconazole were tested for their in vitro antifungal activity. Antifungal activity was evaluated against four fungi, C. albicans (ATCC90028), C. tropicalis (ATCC7349), A. fumigatus (3.5352), and C. neoformans (2.3201), by broth microdilution according to the protocols from the NCCLS (Jiang et al., [2014]). Briefly, all tested compounds were dissolved in DMSO, and the solutions were diluted with fresh broth medium. All of the fungi-seeded broth (1 × 10^5 colony-forming units [CFU]/mL) were prepared in RPMI 1640 medium and added into the serially diluted drug solution. The tubes were incubated at 28°C, and the MIC (μg/mL) was recorded 72–96 h post-incubation. Broth control (without fungi), growth controls (with fungi and without drug), solvent (DMSO) control, and drug control for both test drugs and standard drugs were set under identical conditions. The minimum drug concentration in the tubes in which no apparent growth of the organism was observed represented the MIC of the compounds.
# [4] = tested on: C. albicans (ATCC90028); assay: Antifungal activity, broth microdilution; assay type: cell-based, Candida albicans
# Description: as §1
# [5] = tested on: VERO cell line; assay: Cytotoxicity MTT assay; assay type: cell-based; conditions: Chlorocebus sabaeus, cytotoxicity in VERO cells, 72 h
# Description: VERO cells (2 × 10^4 cells) were seeded into 96-well plates and incubated for 12 h. Serial dilutions of the compounds were mixed with the cell suspension in the plates. Both treated cells and blank and solvent controls were incubated for 72 h, followed by incubation with MTT (0.5 mg/mL) for another 4 h. The microplates were measured at 570 nm using a multimode reader (Infinite M200, Tecan). The percentage of viable cells was calculated as the mean with respect to the controls set to 100%. Triplicate wells were analyzed for each concentration. IC50 was defined as the concentration that reduced the viable cells by 50% compared to the untreated control cells. It was considered significant when the SI was more than 10.
# [6] = tested on: C. neoformans (2.3201); assay: Antifungal activity, broth microdilution; assay type: cell-based; conditions: Cryptococcus neoformans
# Description: as §1
# [7] = tested on: A. fumigatus (3.5352); assay: Antifungal activity, broth microdilution; assay type: cell-based; conditions: Aspergillus fumigatus
# Description: as §1
# [8] = tested on: C. tropicalis (ATCC7349); assay: Antifungal activity, broth microdilution; assay type: cell-based; conditions: Candida tropicalis
# Description: as §1
# [9] = tested on: M. tuberculosis (Mtb) strain H37Rv; set-up: method as in Ortega et al., 2001; Vicente et al., 2009; conditions: ref Ortega et al., 2001, Vicente et al., 2009; cited from earlier work
# [10] = repeated in Table 5 for the 3D-QSAR models, read-out: MIC
# [11] = experimental pMIC, Table 5, read-out: pMIC exp (converted)
# [12] = C. albicans, C. tropicalis, A. fumigatus, C. neoformans together
# [13] = Candida albicans ATCC 90028, read-out: MIC
# [14] = C. neoformans 2.3201, read-out: MIC
# [15] = A. fumigatus 3.5352, read-out: MIC
# [16] = C. tropicalis ATCC 7349, read-out: MIC
SMILES,antimycobacterial activity (in words) [1],"MIC ([1]; MABA assay, read-out: MIC) [µg/mL]","MIC [1, 10] [µg/mL]","MIC [1, 11] [µM]",EC90 [2] [µg/mL],EC99 [2] [µg/mL],"MIC [3, 12] [µg/mL]","MIC [4, 13] [µg/mL]",IC50 [5] [µg/mL],melting point [°C],"MIC [6, 14] [µg/mL]","MIC [7, 15] [µg/mL]","MIC [8, 16] [µg/mL]",MIC [9] [µg/mL],MIC [3] [µg/mL],MIC ([4]; Candida albicans) [µg/mL],MIC [6] [µg/mL],MIC [7] [µg/mL],MIC [8] [µg/mL]
"O=C1CSC(c2c[n+]([O-])c3ccc(F)cc3[n+]2[O-])N1c1ccc(F)cc1 (stereo not drawn) [2t, 7-F-2-(3′-P-fluorophenyl-4′(5H)-thiazolidinone)-quinoxaline-1,4-di-N-oxide]",good antimycobacterial activity,1.56,1.56,4.16,1.66,5.25,2 to 4,4,101,250 to 253,4,4,2,–,–,–,–,–,–
"O=C1CSC(c2c[n+]([O-])c3ccc(F)cc3[n+]2[O-])N1c1ccc(Cl)cc1 (stereo not drawn) [2u, 7-F-2-(3′-P-chlorophenyl-4′(5H)-thiazolidinone)-quinoxaline-1,4-di-N-oxide]",good antimycobacterial activity,–,1.56,3.99,0.84,3.27,2 to 4,4,91.2,249 to 252,4,2,4,–,–,–,–,–,–
"O=C1CSC(c2c[n+]([O-])c3ccc(Cl)cc3[n+]2[O-])N1c1ccccc1 (stereo not drawn) [2v, 7-Cl-2-(3′-phenyl-4′(5H)-thiazolidinone)-quinoxaline-1,4-di-N-oxide]",–,≤ 3.13,3.13,8.39,–,–,–,8,119,248 to 250,8,4,8,–,–,–,–,–,–
"Cc1ccc(N2C(=O)CSC2c2c[n+]([O-])c3ccc(Cl)cc3[n+]2[O-])cc1 (stereo not drawn) [2w, 7-Cl-2-(3′-P-methylphenyl-4′(5H)-thiazolidinone)-quinoxaline-1,4-di-N-oxide]",–,6.25,6.25,16.1,–,–,–,8,125,250 to 252,4,8,4,–,–,–,–,–,–
"O=C1CSC(c2c[n+]([O-])c3ccc(Cl)cc3[n+]2[O-])N1c1ccc(F)cc1 (stereo not drawn) [2y, 7-Cl-2-(3′-P-fluorophenyl-4′(5H)-thiazolidinone)-quinoxaline-1,4-di-N-oxide]",good antimycobacterial activity,–,1.56,3.99,1.33,4.58,2 to 4,2,107,251 to 253,2,4,4,–,–,–,–,–,–
"O=C1CSC(c2c[n+]([O-])c3ccc(Cl)cc3[n+]2[O-])N1c1ccc(Cl)cc1 (stereo not drawn) [2z, 7-Cl-2-(3′-P-chlorophenyl-4′(5H)-thiazolidinone)-quinoxaline-1,4-di-N-oxide]",good antimycobacterial activity,–,1.56,3.85,0.92,3.93,2 to 4,4,94.6,252 to 255,4,4,4,–,–,–,–,–,–
"Cc1ccc2c(c1)[n+]([O-])c(C#N)c(-c1ccc(F)cc1)[n+]2[O-] [7-methyl-3-(4′-fluoro)phenylquinoxaline-2-carbonitrile-1,4-di-N-oxide]",–,–,–,–,–,–,–,–,–,–,–,–,–,< 0.2,–,–,–,–,–
"C[C@@H]1[C@H](O)[C@@H](C)/C=C/C=C/C=C/C=C/C=C/C=C/C=C/[C@H](O[C@@H]2O[C@H](C)[C@@H](O)[C@H](N)[C@@H]2O)C[C@@H]2O[C@](O)(C[C@@H](O)C[C@@H](O)[C@H](O)CC[C@@H](O)C[C@@H](O)CC(=O)O[C@H]1C)C[C@H](O)[C@H]2C(=O)O [AMB, Amphotericin b, reference compound]",–,–,–,–,–,–,0.25 to 2,1,–,–,0.5,0.5,2,–,–,–,–,–,–
"CC(=O)N1CCN(c2ccc(OCC3COC(Cn4ccnc4)(c4ccc(Cl)cc4Cl)O3)cc2)CC1 (stereo not drawn) [KCZ, Ketoconazole, reference compound]",–,–,–,–,–,–,–,–,–,–,–,–,–,–,0.25 to 2,0.25,0.25,0.5,0.5
